Test results reported in patent publication US20030102246A1, “Method for improving the stability of stored and/or used light-sensitive therapeutic systems or components thereof” (LTS Lohmann Therapie-Systeme AG, priority 1999, published 2003).

Assays:
[1] = Light stability of lacidipine solution in differently coloured polypropylene vessels exposed to daylight; assay type: physicochemical; settings: daylight 6 to 8 hours
Description: As a representative of the very light-sensitive 1,4-dihydropyridine derivatives, lacidipine is used. By way of the example of lacidipine it is possible to show the influence the absorption spectrum of a polymer, for instance, one based on polypropylene, has on the stability of the 1,4-dihydropyridine derivative.
To carry out the experiment, the lacidipine was dissolved in a solvent. Since dissolved lacidipine is very sensitive to electromagnetic-radiation, it was possible to clearly determine the influence of the polymers examined. The lacidipine solution was filled in differently coloured vessels of polypropylene and exposed to daylight for a defined period of time. The vessels in this context served as models for a coloured film. After the vessels had been exposed to a certain radiation (for a time of 6 to 8 hours), the lacidipine content of the samples was determined. On the basis of the known initial concentration and the detected active substance amounts it was possible to make a statement on the protective action of the polymers used.
The absorption spectrum of lacidipine contains three maxima [238.4 nm; 282.8 nm; 367.4 nm]. These wavelength regions determine the light-sensitivity of the active substance. […] It can thus be concluded that to ensure maximum stability in the present case brown or aluminized polymers should be used.

[2] = cited from earlier work

Row | Amount of active substance after irradiation ([1]; polymer aluminized, lichtundurchlässig) | Amount of active substance after irradiation ([1]; polymer blue, clear, absorption range <325 nm, 500 nm-700 nm) | Amount of active substance after irradiation ([1]; polymer brown, clear, absorption range <500 nm) | Amount of active substance after irradiation ([1]; polymer green, clear, absorption range <325 nm, >800 nm) | Amount of active substance after irradiation ([1]; polymer orange, klar, absorption range 550 nm-750 nm) | Amount of active substance after irradiation ([1]; polymer transparent, clear, absorption range <300 nm) | Amount of active substance after irradiation ([1]; polymer transparent, cloudy, absorption range <300 nm) | Amount of active substance after irradiation ([1]; polymer yellow, clear, absorption range <350 nm, >700 nm) | SMILES | rate of degradation of the active substance ([2]; with a yellow colourant having its absorption maximum in the range of 400 nm) | stabilisation against light ([2]; with light-stability or screening agents absorbing UV-A or UV-B rays)
1 | 99.36 % of initial amount | 23.46 % of initial amount | 98.93 % of initial amount | 12.40 % of initial amount | 15.65 % of initial amount | 14.79 % of initial amount | 21.05 % of initial amount | 29.32 % of initial amount | CCOC(=O)C1=C(C)NC(C)=C(C(=O)OCC)C1c1ccccc1/C=C/C(=O)OC(C)(C)C [lacidipine] | – | –
2 | – | – | – | – | – | – | – | – | CC1=C(/C=C/C(C)=C/C=C/C(C)=C/C(=O)O)C(C)(C)CCC1 [vitamine A acid] | substantially reduced | did not yield the desired results
